# The supplement of paper PMC10307832
# Compound: CN1CCN(c2ccc3nc(-c4c(N)c5c(F)cccc5[nH]c4=O)[nH]c3c2)CC1 [Dovitinib] + CC(C)C[C@H](NC(=O)[C@H](Cc1ccccc1)NC(=O)c1cnccn1)B(O)O [Bortezomib] (partner 0.002 µM)
# Assay: relative viability (nuclei count vs DMSO), 5 days (fraction); higher = more cells survive
# How it was run: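 Nuclei were stained with Hoechst during a one-step fixation (final 0.05% Triton X-100, 1% formaldehyde, 1 ug/ml Hoechst) carried out 5 days after dosing, then counted on 4× images. The cells, lung cancer lines in 1536-well plates, had been dosed by pin tool the day after seeding with one drug alone or a fixed anchor-drug dose plus five library-drug doses (not always all listed) in √10 steps. Relative viability is the nuclei count in treated wells divided by that in vehicle wells, and each value is the median of duplicate plates.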
Cell Line,relative viability (first compound 0.02 µM),relative viability (first compound 0.06325 µM),relative viability (first compound 0.2 µM),relative viability (first compound 0.6325 µM),relative viability (first compound 2 µM)
H3255,0.773,0.642,0.804,0.739,0.788
EPLC-272H,0.917,0.949,0.883,0.875,0.905
PC-3 [JPC-3],0.849,0.803,0.899,0.872,0.88
EKVX,1.08,1.08,1.22,1.06,1.08
ChaGo-K-1,1.1,1.01,0.952,1.04,1.03
NCI-H23,0.925,1.02,1.01,1.05,1.22
EMC-BAC-2,1.05,0.995,1.08,1.05,1.04
LOU-NH91,0.433,0.502,0.479,0.585,0.401
LU99A,1.15,1.08,0.987,1.05,1.32
NCI-H460,1.01,1.2,1.09,1.11,1.08
201T,1.05,1.04,,1.1,1.09
NCI-H2405,0.871,0.972,1,1.08,0.969
NCI-H1703,0.47,0.335,0.18,0.328,0.291
NCI-H1755,0.97,0.923,0.957,0.928,0.955
NCI-H2087,0.756,1.07,0.805,0.899,0.86
NCI-H2228,0.845,0.952,0.827,0.897,0.875
NCI-H727,0.937,0.733,0.92,0.845,1.27
NCI-H650,0.883,0.711,0.729,0.709,0.806
NCI-H520,0.527,0.725,0.63,0.488,0.348
EBC-1,0.543,0.488,0.571,0.564,0.587
NCI-H661,0.852,0.746,0.937,0.934,0.85
NCI-H1299,0.977,1.03,1.06,1.05,1.03
NCI-H1993,1.42,1.14,1.05,1.13,0.941

Cell Line,relative viability (first compound 0.02 µM),relative viability (first compound 0.06325 µM),relative viability (first compound 0.2 µM),relative viability (first compound 0.6325 µM),relative viability (first compound 2 µM)
NCI-H838,0.639,0.699,0.851,0.76,0.758
NCI-H1437,0.471,0.575,0.493,0.49,0.523
LCLC-103H,1,1.07,1.01,0.987,1.13
NCI-H441,0.497,0.593,0.352,0.531,0.433
SK-LU-1,0.977,0.993,1.06,1.28,1.26
BEN,0.705,0.991,0.948,1.12,0.679
LC-2-ad,1.08,0.983,1.02,1.06,0.789
COR-L23,0.82,1.03,1.06,1.16,1.16
NCI-H1650,0.209,0.206,0.201,0.189,0.203
RERF-LC-KJ,1.11,1.14,1.14,1.06,0.997
NCI-H1915,0.873,0.963,0.955,0.91,0.986
NCI-H596,1.19,1.03,0.834,1.04,1.07
IA-LM,0.787,1.01,0.666,0.837,0.772
NCI-H2009,0.816,0.926,0.991,0.974,1.08
NCI-H2126,1.11,1.09,1.2,1.08,1.07
LXF-289,0.924,1,1.02,0.935,0.968
NCI-H1563,0.962,0.879,0.977,0.938,0.908
HCC-44,0.822,0.836,0.867,0.894,0.916
PC-14,0.796,0.906,0.834,0.808,0.819
HOP-62,0.604,0.619,0.794,0.968,0.578
NCI-H1666,1,0.87,0.968,0.792,0.842
NCI-H1355,1.31,1.19,1.17,1.2,1.42
HCC-827,1.08,1.07,1.04,1.09,1.05

Cell Line,relative viability (first compound 0.02 µM),relative viability (first compound 0.06325 µM),relative viability (first compound 0.2 µM),relative viability (first compound 0.6325 µM),relative viability (first compound 2 µM)
HARA,1.26,1.16,1.01,1.17,1.2
HCC-366,1.08,1.06,0.987,1.06,0.999
NCI-H322M,1.21,1.21,1.19,1.12,1.16
NCI-H2347,1.18,0.935,0.907,1.43,1.09
NCI-H1975,0.389,0.48,0.377,0.373,0.405
UMC-11,0.77,0.669,0.881,0.81,0.668
ABC-1,0.262,0.34,0.306,0.323,0.315
A-427,0.87,0.909,0.953,0.93,1.03
LCLC-97TM1,0.754,0.783,0.371,0.867,0.566
HCC-15,1.03,1.07,1.02,1.05,1.02
NCI-H647,0.993,1.08,1.13,0.897,0.667
SW 1573,0.985,1.06,0.997,1.08,1.03
NCI-H1651,0.957,0.961,1.03,1.02,0.91
NCI-H1792,0.938,0.935,0.998,1.04,0.918
NCI-H2023,0.994,0.963,1.24,0.995,0.886
COR-L 105,0.779,0.666,0.86,0.84,0.965
NCI-H1734,0.845,0.941,0.933,0.948,0.87
NCI-H3122,0.984,0.977,1.03,1.05,1.01
CAL-12T,1.28,1,1.1,0.977,1.05
HCC-78,0.636,0.486,0.531,0.567,0.355
NCI-H2085,1.05,1.1,1.03,1.21,1.06
